Assay results taken from article PMC11435438, “Cyclin-Dependent Kinase 8 Represents a Positive Regulator of Cytomegalovirus Replication and a Novel Host Target for Antiviral Strategies” (Pharmaceutics, 2024).
Where two headings read alike, the source gives them in different places.

What was measured:
HSV-1 166v VP22-GFP = experiment: HSV-1 replication assay in HFFs; type: cell-based, herpes simplex virus type 1; settings: Human alphaherpesvirus 1, read-out: EC50 HSV-1
Method: (§1) Primary human foreskin fibroblasts (HFFs; obtained from clinical samples at Children’s Hospital in Erlangen, Germany), guinea pig embryonic fibroblasts (GPEFs; generously provided by Mark R. Schleiss from the University of Minnesota in Minneapolis, MN, USA), and rat embryonic fibroblasts were cultivated in Eagle’s Minimal Essential Medium (MEM) supplemented with 1 × GlutaMAX™ (both from Thermo Fisher Scientific, Waltham, MA, USA), 10 µg/mL gentamicin, and 10% fetal bovine serum (FBS; Capricorn, Ebsdorfergrund, Germany). Human glioblastoma–astrocytoma cell line (U373) and mouse embryonic fibroblasts (MEFs), both obtained from ATCC (Manassas, VA, USA), and Vero cell sublineage 76 [26], were cultivated in Dulbecco’s modified Eagle’s medium (DMEM) supplemented with 1 × GlutaMAX™, 10 µg/mL gentamicin, and 10% fetal bovine serum. All cultured cells were maintained under the conditions of 37 °C temperature, 5% CO2, and 80% humidity. The regular monitoring for the absence of mycoplasma contamination was conducted using Lonza™ Mycoalert™ (Thermo Fisher Scientific, Waltham, MA, USA). Cultured cell-based viral replication assays were performed by the use of the HCMV strain AD169 (variant U.K.), the recombinant HCMVs AD169-GFP expressing green fluorescent protein [27], TB40 IE2-YFP and TB40-FLuc expressing an IE2-YFP fusion protein or firefly luciferase (FLuc), and Merlin-GFP [31]. […]
(§2) A variety of antiherpesviral and non-herpesviral drug activities were assessed by the cell culture-based viral replication systems, as described elsewhere. […] After incubation at 37 °C for 3 days, iSLK.219 cells were fixed with 10% formalin, washed with PBS, and used for a quantitation of RFP reporter signal by PicoMD counting (ImageXpress® Pico device, Molecular Devices LLC, San Jose, CA, USA). […]

[1] = tested on: HAdV species C5 DBP-mneongreen; experiment: HAdV replication assay in A549 cells; type: cell-based; settings: Human adenovirus sp., A549, read-out: EC50 HAdV
Method: as §1, §2

HCMV Merlin-GFP = HCMV Merlin-GFP replication assay in U373 cells; type: cell-based, human cytomegalovirus; settings: Human betaherpesvirus 5, U373 MG, read-out: EC50 Merlin-GFP
Method: (i.e., 1 × TCID25/7d). Immediately after virus adsorption, the cells were treated with antiviral compounds or solvent control (DMSO). Infections were performed in biological quadruplicates, or as indicated for individual experiments. The cells were fixed by the addition of 150 µL 10% formalin/well 7 d p.i. (Merlin-GFP 14 d p.i.), and washed with PBS. For GFP or YFP quantitation, the Victor X4 microplate reader (PerkinElmer, Waltham, MA, USA) was primarily used, or as a very sensitive alternative, the ImageXpress® Pico device (Molecular Devices LLC, San Jose, CA, USA). Mean EC50 values of antiviral efficacy were calculated on the basis of three experimental replicates or as indicated (measurement of fluorescence values in quadruplicate), and percentage values were provided relative to the solvent control (DMSO).

[2] = Neutral Red uptake cell viability assay in mock-infected HFFs; type: cell-based; settings: human, read-out: CC50 Mock-inf.
Method: To address cell viability after compound treatment, a NR uptake assay was performed. Uninfected cells were seeded at equal numbers as for antiviral replication assays and treated with compounds or solvent control. The treatment was performed for HFFs (7 d), U373 (14 d), A549 (3 d), J-Jhan (14 d), and non-dox-induced iSLK.219 cells (3 d). At the end of the treatment period, 40 µg/mL of Neutral Red (NR) was added and incubated for 2–4 h at 37 °C, before the NR-containing supernatant was removed. Cells were destained using a solution containing 50% ethanol, 1% acetic acid, and 49% water. NR fluorescence was quantified using the Victor X4 microplate reader (PerkinElmer, Waltham, MA, USA) (560/630 nm). For the AB cell viability assay, which was also used to quantify virus-induced cytopathogenicity (particularly in the case of GPCMV in GPEFs), cells were seeded at equal numbers as for antiviral replication assays and incubated with a medium containing 25 ng/mL AB (resazurin; Ann Arbor, MI, USA), incubated for 6 h at 37 °C, and used for measurement identical with NR.

HHV-6A-GFP = experiment: HHV-6A replication assay in J-Jhan cells; type: cell-based, human herpesvirus type 6A; settings: Homo sapiens, read-out: EC50 HHV-6A
Method: as §1, §2

[3] = mock-infected (uninfected) HFFs

SMILES | EC50 (HSV-1 166v VP22-GFP) [nM] | EC50 [1] [nM] | EC50 (HCMV Merlin-GFP) [nM] | CC50 at 7 d [2, 3] [nM] | EC50 (HHV-6A-GFP) [nM] | CC50 at 7 d ([2]; HFF) [nM]
CN(C)C(=O)Cn1cc(-c2ccc(-c3cncc4ccccc34)cc2)cn1 [BI-1347] | > 50000 | 50 ± 110 | 1.4 ± 1.37 | > 100000 | > 50000 | –
Cn1ncc2cc(-c3cnc(N)c(Cl)c3N3CCC4(CCNC4=O)CC3)ccc21 [CCT-151921] | > 50000 | 30 ± 30 | 14.7 ± 16.3 | – | 39000 ± 21000 | > 100000
Cc1n[nH]c2ncc(C(=O)N3CCC[C@H]3c3ccc(Cl)cc3)cc12 [MSC-2530818] | 42300 ± 4900 | 340 ± 260 | 4.47 ± 4.4 | > 100000 | > 50000 | –
